According to ChEMBL document CHEMBL1129177, “Novel analogs of cyclic-ADP-ribose: 9-Cyclic etheno-ADP-ribose and cyclic etheno-CDP-ribose” (Bioorg Med Chem Lett, 1996):

Organism: Rattus norvegicus
Assay: Dose response for [Ca2+] release from rat brain microsomes was determined
Format: functional

| EC50 [µM] | Structure (SMILES) |
| --- | --- |
| 8 | O=P1([O-])OC[C@H]2OC([C@H](O)[C@@H]2O)[n+]2ccn3cnc4c(ncn4C4O[C@H](COP(=O)(O)O1)[C@@H](O)[C@H]4O)c32 |
| 0.09 | O=P(O)(O)O[C@@H]1[C@H](O)[C@H](O)[C@@H](OP(=O)(O)O)[C@H](OP(=O)(O)O)[C@H]1O [INS(1,4,5)P3] |
| 22 | Nc1c2ncn3c2nc[n+]1[C@@H]1O[C@H](COP(=O)([O-])OP(=O)(O)OC[C@H]2O[C@@H]3[C@H](O)[C@@H]2O)[C@@H](O)[C@H]1O |
